# Where two headings read alike, the source gives them in different places.
# How the values were obtained:
# MCF7 CARM1 KO cells = experiment: Quantitative MS of ADMA-containing peptides in MCF7 CARM1 KO cells expressing CARM1 28-608 or CARM1 140-608, and in CARM1 KO; assay type: cell-based, human
# MCF7 cells = experiment: Quantitative nanoLC-MS/MS (TMT) of ADMA-containing peptides, CARM1 KO vs parental; assay type: cell-based, human; set-up: Fold change KO/WT: scale not given here
# [1] = CARM1 140-608 vs WT, mean of 3 replicates (log2 scale)
# [2] = KO vs WT, mean of 3 replicates (log2 scale)
# [3] = MCF7, CARM1 KO (KO1-KO3) vs wild type (WT1-WT3)
# [4] = CARM1 140-608 versus WT, difference of mean log2 values
# [5] = CARM1 KO versus WT, difference of mean log2 values
# [6] = CARM1 KO vs wild type MCF7 cells, 3 biological replicates each
# [7] = CARM1 140-608 versus WT, mean of three replicates (log2)
# [8] = KO versus WT, mean of three replicates (log2)
# [9] = ADMA-containing peptide, CARM1 knockout (KO) vs wild type (WT) MCF7 cells, 6-plex TMT experiment #1, three biological replicates each, sheet "MCF7"
# [10] = difference of log2 means, CARM1 140-608 vs WT
# [11] = difference of log2 means, KO vs WT
# [12] = CARM1 140-608 vs WT, mean of 3 replicates, log2
# [13] = KO vs WT, mean of 3 replicates, log2
# [14] = MCF7, CARM1 KO vs WT, three biological replicates each
# [15] = mean, CARM1 140-608 versus WT (log2 scale)
# [16] = mean, CARM1 KO versus WT (log2 scale)
# [17] = MCF7 CARM1 knockout vs wild type, 3 biological replicates each, values are on log2 scale
# [18] = ADMA-containing peptide, MCF7, CARM1 knockout (KO1-3) vs wild type (WT1-3), TMT 6-plex experiment #1
# [19] = MCF7, CARM1 knockout vs wild type, n = 3 each
# [20] = log2 scale ratio, mean of n = 3
# [21] = ratio on log2 scale, mean of 3 replicates
substance,measurement,setting,value
FLQPrLAPNQPPPPLIrPALAAPR,CARM1 140-608/WT,MCF7 CARM1 KO cells; [1],0.3049
same,KO/WT,MCF7 CARM1 KO cells; [2],-2.801
same,Fold change KO/WT,MCF7 cells; [3],-3.157
NPHTLGLSrYHPYGK,CARM1 140-608/WT,MCF7 CARM1 KO cells; [4],-0.4138
same,KO/WT,MCF7 CARM1 KO cells; [5],-0.4466
same,Fold change KO/WT,MCF7 cells; [6],-0.4466
KYPLPPPSGrYNWN,CARM1 140-608/WT,MCF7 CARM1 KO cells; [4],-1.833
same,KO/WT,MCF7 CARM1 KO cells; [5],-2.65
same,Fold change KO/WT,MCF7 cells; [6],-1.439
DCGTLPNrFVITPR,CARM1 140-608/WT,MCF7 CARM1 KO cells; [7],-0.5335
same,KO/WT,MCF7 CARM1 KO cells; [8],-0.73
same,Fold change KO/WT,MCF7 cells; [9],-0.2619
RAPAGGSLGrALMR,CARM1 140-608/WT,MCF7 CARM1 KO cells; [10],0.2074
same,KO/WT,MCF7 CARM1 KO cells; [11],0.5402
same,Fold change KO/WT,MCF7 cells; [9],0.1845
LAQNAArIPGIPrHSGPQYSMMQPHLQR,CARM1 140-608/WT,MCF7 CARM1 KO cells; [4],-0.4462
same,KO/WT,MCF7 CARM1 KO cells; [5],-2.068
same,Fold change KO/WT,MCF7 cells; [6],-2.189
FFEAAAGSGSSAGAGDGAGPQrLPEPGGRPR,CARM1 140-608/WT,MCF7 CARM1 KO cells; [10],-1.027
same,KO/WT,MCF7 CARM1 KO cells; [11],-1.059
same,Fold change KO/WT,MCF7 cells; [9],-1.059
TNRPGISTTDrGFPrArYR,CARM1 140-608/WT,MCF7 CARM1 KO cells; [12],-0.4847
same,KO/WT,MCF7 CARM1 KO cells; [13],-0.1094
same,Fold change KO/WT,MCF7 cells; [14],-0.1094
LQGLQGSGGrGGGLR,CARM1 140-608/WT,MCF7 CARM1 KO cells; [15],0.05748
same,KO/WT,MCF7 CARM1 KO cells; [16],-0.4598
same,Fold change KO/WT,MCF7 cells; [17],-0.266
LITFQLrHILK,CARM1 140-608/WT,MCF7 CARM1 KO cells; [4],-4.254
same,KO/WT,MCF7 CARM1 KO cells; [5],-5.219
same,Fold change KO/WT,MCF7 cells; [18],-5.219
VPrFSSLSSCNPPAMATSAEK,CARM1 140-608/WT,MCF7 CARM1 KO cells; [15],-1.357
same,KO/WT,MCF7 CARM1 KO cells; [16],-1.804
same,Fold change KO/WT,MCF7 cells; [19],-1.804
ANYNFrGMYNQrYHCPVPK,CARM1 140-608/WT,MCF7 CARM1 KO cells,-2.05
same,KO/WT,MCF7 CARM1 KO cells,-3.002
same,Fold change KO/WT,MCF7 cells; [18],-3.002
RPEFMrGGGSGGGR,CARM1 140-608/WT,MCF7 CARM1 KO cells; [20],0.07419
same,KO/WT,MCF7 CARM1 KO cells; [20],0.64
same,Fold change KO/WT,MCF7 cells; [18],0.64
rPFGISALIVGFDDDGISR,CARM1 140-608/WT,MCF7 CARM1 KO cells; [7],-0.5842
same,KO/WT,MCF7 CARM1 KO cells; [8],-1.577
same,Fold change KO/WT,MCF7 cells; [3],-1.577
LRGPGGPrGGLGGGMR,CARM1 140-608/WT,MCF7 CARM1 KO cells; [15],0.5472
same,KO/WT,MCF7 CARM1 KO cells; [16],1.035
same,Fold change KO/WT,MCF7 cells; [19],-0.02725
GPVTPGGLPPrGLLGDAPNDPR,CARM1 140-608/WT,MCF7 CARM1 KO cells; [21],-1.495
same,KO/WT,MCF7 CARM1 KO cells; [21],-1.652
same,Fold change KO/WT,MCF7 cells; [19],-1.652
AGGLLGTGSGLNLrMAGPQGLDLAPILR,CARM1 140-608/WT,MCF7 CARM1 KO cells; [21],-0.05646
same,KO/WT,MCF7 CARM1 KO cells; [21],-2.802
same,Fold change KO/WT,MCF7 cells; [14],-3.029
VrLPCQPLVPGPELRPSAAELK,CARM1 140-608/WT,MCF7 CARM1 KO cells; [10],-1.578
same,KO/WT,MCF7 CARM1 KO cells; [11],-2.704
same,Fold change KO/WT,MCF7 cells; [17],-2.704
APPGGLHAPrLSLEGAAR,CARM1 140-608/WT,MCF7 CARM1 KO cells; [12],-1.8169
same,KO/WT,MCF7 CARM1 KO cells; [13],-2.946
same,Fold change KO/WT,MCF7 cells; [14],-2.121
TPTATTSGIrATLTPTVLAPR,CARM1 140-608/WT,MCF7 CARM1 KO cells; [20],0.4696
same,KO/WT,MCF7 CARM1 KO cells; [20],-2.089
same,Fold change KO/WT,MCF7 cells; [18],-1.669
APPVrYCIPGER,CARM1 140-608/WT,MCF7 CARM1 KO cells; [21],-3.736
same,KO/WT,MCF7 CARM1 KO cells; [21],-5.161
same,Fold change KO/WT,MCF7 cells; [19],-5.161
IPGIPrHSGPQYSMMQPHLQR,CARM1 140-608/WT,MCF7 CARM1 KO cells; [4],1.323
same,KO/WT,MCF7 CARM1 KO cells; [5],-0.1608
same,Fold change KO/WT,MCF7 cells; [6],-0.5283
GArGLMNGYR,CARM1 140-608/WT,MCF7 CARM1 KO cells; [12],0.7786
same,KO/WT,MCF7 CARM1 KO cells; [13],0.02481
same,Fold change KO/WT,MCF7 cells; [14],0.02481
MRPQPYGGTNPYSQQQGPPSGPQQGHGYPGQPYGSQTPQrYPMTMQGR,CARM1 140-608/WT,MCF7 CARM1 KO cells; [12],-0.1711
same,KO/WT,MCF7 CARM1 KO cells; [13],-1.781
same,Fold change KO/WT,MCF7 cells; [14],-2.959
VREELLrHQLLEK,CARM1 140-608/WT,MCF7 CARM1 KO cells; [12],-2.55
same,KO/WT,MCF7 CARM1 KO cells; [13],-4.282
same,Fold change KO/WT,MCF7 cells; [14],-4.282
VGSSNFrGGLGGGYGGASGMGGITAVTVNQSLLSPLVLEVDPNIQAVR,CARM1 140-608/WT,MCF7 CARM1 KO cells; [10],-0.9286
same,KO/WT,MCF7 CARM1 KO cells; [11],-0.7814
same,Fold change KO/WT,MCF7 cells; [17],-0.7814
FEGGHGPSGAAIrFDGPHGQPGGGIrFEGPLLQQGVGMrFEGPHGQSVAGLR,CARM1 140-608/WT,MCF7 CARM1 KO cells; [7],-0.8121
same,KO/WT,MCF7 CARM1 KO cells; [8],-1.343
same,Fold change KO/WT,MCF7 cells; [9],-1.343
EGAEGVNGGEESVNLNDADEGFSSGASLSSQPIGTKPSSSSQrGSLR,CARM1 140-608/WT,MCF7 CARM1 KO cells; [21],-0.2709
same,KO/WT,MCF7 CARM1 KO cells; [21],-0.04765
same,Fold change KO/WT,MCF7 cells; [19],-0.04765
SHLSTAGGLAVPSLPTAGPYYSPYALYGQrLASASALGYQ,CARM1 140-608/WT,MCF7 CARM1 KO cells; [4],-2.31
same,KO/WT,MCF7 CARM1 KO cells; [5],-2.998
same,Fold change KO/WT,MCF7 cells; [6],-2.553
SPVAPPLGPrYAVFPK,CARM1 140-608/WT,MCF7 CARM1 KO cells; [10],2.312
same,KO/WT,MCF7 CARM1 KO cells; [11],-0.9897
same,Fold change KO/WT,MCF7 cells; [17],-2.706
SIVPTMHYQDSLPrLPIPK,CARM1 140-608/WT,MCF7 CARM1 KO cells; [21],-1.626
same,KO/WT,MCF7 CARM1 KO cells; [21],-2.513
same,Fold change KO/WT,MCF7 cells; [19],-2.513
AVDLTKPYQNQQLSIrVPLR,CARM1 140-608/WT,MCF7 CARM1 KO cells; [12],-2.717
same,KO/WT,MCF7 CARM1 KO cells; [13],-4.115
same,Fold change KO/WT,MCF7 cells; [14],-2.685
NVNPVILLNTQTrPYGFGLNHGHTPYSSMLNQGLGVPGIGATQGLrTGFTNIPSrYGTNNR,CARM1 140-608/WT,MCF7 CARM1 KO cells; [1],-1.7448
same,KO/WT,MCF7 CARM1 KO cells; [2],-2.828
same,Fold change KO/WT,MCF7 cells; [3],-2.828
EELLrHQLLEK,CARM1 140-608/WT,MCF7 CARM1 KO cells; [12],-4.245
same,KO/WT,MCF7 CARM1 KO cells; [13],-5.464
same,Fold change KO/WT,MCF7 cells; [14],-4.489
